PubChem BioAssay (NCI)
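Where inhibition never reached the appropriate level, the endpoint shown equals the highest concentration tested. Otherwise, values were interpolated linearly from a five-concentration, 48-hour dose response in 96-well plates. Here, GI50 denotes the concentration required for 50% inhibition of growth. TGI marks complete inhibition of growth.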

Experiments:
Test in all cases: NCI tumour cell line growth inhibition, 48 h
LOX IMVI melanoma = tested on: LOX IMVI melanoma
UO-31 renal = tested on: UO-31 renal
MOLT-4 leukemia = tested on: MOLT-4 leukemia
HOP-92 NSCLC = tested on: HOP-92 NSCLC
IGROV1 ovarian = tested on: IGROV1 ovarian
MALME-3M melanoma = tested on: MALME-3M melanoma
SW-620 colon = tested on: SW-620 colon
RPMI-8226 leukemia = tested on: RPMI-8226 leukemia
HS 578T breast = tested on: HS 578T breast
DU-145 prostate = tested on: DU-145 prostate
HOP-62 NSCLC = tested on: HOP-62 NSCLC
UACC-257 melanoma = tested on: UACC-257 melanoma
A498 renal = tested on: A498 renal
786-0 renal = tested on: 786-0 renal
HCT-15 colon = tested on: HCT-15 colon
NCI-H522 lung = tested on: NCI-H522 lung
NCI/ADR-RES ovarian = tested on: NCI/ADR-RES ovarian
OVCAR-5 ovarian = tested on: OVCAR-5 ovarian
T-47D breast = tested on: T-47D breast
COLO 205 colon = tested on: COLO 205 colon
NCI-H226 lung = tested on: NCI-H226 lung
OVCAR-8 ovarian = tested on: OVCAR-8 ovarian
HT29 colon = tested on: HT29 colon
NCI-H460 lung = tested on: NCI-H460 lung
HL-60(TB) leukemia = tested on: HL-60(TB) leukemia
A549 NSCLC = tested on: A549 NSCLC
BT-549 breast = tested on: BT-549 breast
SF-539 CNS = tested on: SF-539 CNS
OVCAR-4 ovarian = tested on: OVCAR-4 ovarian
KM12 colon = tested on: KM12 colon
SN12C renal = tested on: SN12C renal
MDA-MB-435 = tested on: MDA-MB-435
HCC-2998 colon = tested on: HCC-2998 colon
MDA-MB-231 breast = tested on: MDA-MB-231 breast
EKVX NSCLC = tested on: EKVX NSCLC
OVCAR-3 ovarian = tested on: OVCAR-3 ovarian
SK-MEL-2 melanoma = tested on: SK-MEL-2 melanoma
MCF7 breast = tested on: MCF7 breast
SK-OV-3 ovarian = tested on: SK-OV-3 ovarian
TK-10 renal = tested on: TK-10 renal
RXF 393 renal = tested on: RXF 393 renal
SF-295 CNS = tested on: SF-295 CNS
SK-MEL-5 melanoma = tested on: SK-MEL-5 melanoma
SF-268 CNS = tested on: SF-268 CNS
ACHN renal = tested on: ACHN renal
M14 melanoma = tested on: M14 melanoma
HCT-116 colon = tested on: HCT-116 colon
SNB-75 CNS = tested on: SNB-75 CNS
SK-MEL-28 melanoma = tested on: SK-MEL-28 melanoma
PC-3 prostate = tested on: PC-3 prostate
UACC-62 melanoma = tested on: UACC-62 melanoma
CAKI-1 renal = tested on: CAKI-1 renal
U251 CNS = tested on: U251 CNS
NCI-H23 lung = tested on: NCI-H23 lung
SNB-19 CNS = tested on: SNB-19 CNS

C=CCCCCC/C=C\[C@H](O)C#CC#C/C=C/CO
GI50 (LOX IMVI melanoma): 16.4 µM
TGI (LOX IMVI melanoma): 29.9 µM
GI50 (UO-31 renal): 61.9 µM
TGI (UO-31 renal): > 100 µM
GI50 (MOLT-4 leukemia): 17.3 µM
TGI (MOLT-4 leukemia): 49.2 µM
GI50 (HOP-92 NSCLC): 52.8 µM
TGI (HOP-92 NSCLC): > 100 µM
GI50 (IGROV1 ovarian): 19.4 µM
TGI (IGROV1 ovarian): 53.7 µM
GI50 (MALME-3M melanoma): 54 µM
TGI (MALME-3M melanoma): > 100 µM
GI50 (SW-620 colon): 27 µM
TGI (SW-620 colon): 78.5 µM
GI50 (RPMI-8226 leukemia): 14 µM
TGI (RPMI-8226 leukemia): 32.2 µM
GI50 (HS 578T breast): 45.4 µM
TGI (HS 578T breast): > 100 µM
GI50 (DU-145 prostate): 66.3 µM
TGI (DU-145 prostate): > 100 µM
GI50 (HOP-62 NSCLC): > 100 µM
TGI (HOP-62 NSCLC): > 100 µM
GI50 (UACC-257 melanoma): 78.9 µM
TGI (UACC-257 melanoma): > 100 µM
GI50 (A498 renal): 20.3 µM
TGI (A498 renal): 51.9 µM
GI50 (786-0 renal): 29.3 µM
TGI (786-0 renal): 82.2 µM
GI50 (HCT-15 colon): 30 µM
TGI (HCT-15 colon): > 100 µM
GI50 (NCI-H522 lung): 19.3 µM
TGI (NCI-H522 lung): 45.4 µM
GI50 (NCI/ADR-RES ovarian): 23.5 µM
TGI (NCI/ADR-RES ovarian): 57.3 µM
GI50 (OVCAR-5 ovarian): 43.3 µM
TGI (OVCAR-5 ovarian): > 100 µM
GI50 (T-47D breast): 98.4 µM
TGI (T-47D breast): > 100 µM
GI50 (COLO 205 colon): 36.7 µM
TGI (COLO 205 colon): > 100 µM
GI50 (NCI-H226 lung): 15.2 µM
TGI (NCI-H226 lung): 31 µM
GI50 (OVCAR-8 ovarian): 20.2 µM
TGI (OVCAR-8 ovarian): 52 µM
GI50 (HT29 colon): > 100 µM
TGI (HT29 colon): > 100 µM
GI50 (NCI-H460 lung): > 100 µM
TGI (NCI-H460 lung): > 100 µM
GI50 (HL-60(TB) leukemia): 3.64 µM
TGI (HL-60(TB) leukemia): 24.1 µM
GI50 (A549 NSCLC): 21.2 µM
TGI (A549 NSCLC): 45.4 µM
GI50 (BT-549 breast): 20.1 µM
TGI (BT-549 breast): 54.7 µM
GI50 (SF-539 CNS): 58.2 µM
TGI (SF-539 CNS): > 100 µM
GI50 (OVCAR-4 ovarian): 90.8 µM
TGI (OVCAR-4 ovarian): > 100 µM
GI50 (KM12 colon): 18.3 µM
TGI (KM12 colon): 33.7 µM
GI50 (SN12C renal): 15 µM
TGI (SN12C renal): 35.1 µM
GI50 (MDA-MB-435): 39.8 µM
TGI (MDA-MB-435): > 100 µM
GI50 (HCC-2998 colon): 12.5 µM
TGI (HCC-2998 colon): 25.1 µM
GI50 (MDA-MB-231 breast): 14.5 µM
TGI (MDA-MB-231 breast): 33.8 µM
GI50 (EKVX NSCLC): 52.7 µM
TGI (EKVX NSCLC): > 100 µM
GI50 (OVCAR-3 ovarian): 31.7 µM
TGI (OVCAR-3 ovarian): 80.3 µM
GI50 (SK-MEL-2 melanoma): 83.3 µM
TGI (SK-MEL-2 melanoma): > 100 µM
GI50 (MCF7 breast): 38.5 µM
TGI (MCF7 breast): > 100 µM
GI50 (SK-OV-3 ovarian): > 100 µM
TGI (SK-OV-3 ovarian): > 100 µM
GI50 (TK-10 renal): 28.8 µM
TGI (TK-10 renal): > 100 µM
GI50 (RXF 393 renal): 34.5 µM
TGI (RXF 393 renal): > 100 µM
GI50 (SF-295 CNS): 60.3 µM
TGI (SF-295 CNS): > 100 µM
GI50 (SK-MEL-5 melanoma): 38.5 µM
TGI (SK-MEL-5 melanoma): > 100 µM
GI50 (SF-268 CNS): 24.5 µM
TGI (SF-268 CNS): 70.5 µM
GI50 (ACHN renal): > 100 µM
TGI (ACHN renal): > 100 µM
GI50 (M14 melanoma): 86.2 µM
TGI (M14 melanoma): > 100 µM
GI50 (HCT-116 colon): 22.6 µM
TGI (HCT-116 colon): 48.6 µM
GI50 (SNB-75 CNS): > 100 µM
TGI (SNB-75 CNS): > 100 µM
GI50 (SK-MEL-28 melanoma): > 100 µM
TGI (SK-MEL-28 melanoma): > 100 µM
GI50 (PC-3 prostate): 18.6 µM
TGI (PC-3 prostate): 36.1 µM
GI50 (UACC-62 melanoma): 26.2 µM
TGI (UACC-62 melanoma): > 100 µM
GI50 (CAKI-1 renal): 32.6 µM
TGI (CAKI-1 renal): 86.6 µM
GI50 (U251 CNS): 24.5 µM
TGI (U251 CNS): 77.3 µM
GI50 (NCI-H23 lung): 22.6 µM
TGI (NCI-H23 lung): 50.9 µM
GI50 (SNB-19 CNS): > 100 µM
TGI (SNB-19 CNS): > 100 µM
